Laboratory results reported in PubChem BioAssay (NCI).
Where “and” joins values, the source holds several entries; their conditions need not be identical. Equal values may be shown once.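 Step 1: Grow cells in 96-well plates. Step 2: Expose to compound for 48 hours at 5 concentrations. Step 3: Interpolate endpoints linearly; if unreached, use highest concentration. GI50 marks 50% less growth. TGI: concentration producing complete growth inhibition.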

Experiments:
Assay in all cases: DTP human tumour cell line panel, 48 h
SN12C renal = tested on: SN12C renal
NCI-H23 lung = tested on: NCI-H23 lung
HCT-15 colon = tested on: HCT-15 colon
KM12 colon = tested on: KM12 colon
RXF 393 renal = tested on: RXF 393 renal
SNB-75 CNS = tested on: SNB-75 CNS
UACC-62 melanoma = tested on: UACC-62 melanoma
HCT-116 colon = tested on: HCT-116 colon
IGROV1 ovarian = tested on: IGROV1 ovarian
BT-549 breast = tested on: BT-549 breast

Row | Compound | TGI (SN12C renal) [µM] | TGI (NCI-H23 lung) | TGI (HCT-15 colon) [µM] | TGI (KM12 colon) [µM] | TGI (RXF 393 renal) [µM] | TGI (SNB-75 CNS) | TGI (UACC-62 melanoma) [µM] | TGI (HCT-116 colon) [µM] | TGI (IGROV1 ovarian) [µM] | TGI (BT-549 breast) [µM] | GI50 (SN12C renal) [µM] | GI50 (HCT-15 colon) | GI50 (RXF 393 renal) [µM] | GI50 (SNB-75 CNS) | GI50 (KM12 colon) [µM]
1 | C=CCCCN(C(=O)c1ccccc1)c1ccc(C(=O)OC)o1 | > 100 | > 100 µM | > 100 | > 100 | > 100 | > 100 µM | > 100 | > 100 | > 100 | – | – | – | – | – | –
2 | CN(C)Cc1cc(/C=C/C(=O)c2ccc(Br)cc2)cc(CN(C)C)c1O | 32.3 | – | – | 29.6 | 74.5 | 43.7 µM | 39.1 | 29 | 23.4 | 34.4 | – | – | – | – | –
3 | COc1ccc(-c2csc3c2[N+]2(C)C=CC=C2C3N2CCCC2)cc1 (centres undefined) | – | 44.7 µM | > 100 | 34.9 | > 100 | 36.8 µM | 38.2 | > 100 | 27.2 | 58.3 | – | – | – | – | –
4 | CC12CC(c3ccccc3O1)C(C(=O)Nc1nccs1)C(=O)N2 (centres undefined) | – | > 100 µM | > 100 | > 100 | > 100 | > 100 µM | > 100 | > 100 | > 100 | > 100 | – | – | – | – | –
5 | CC(C)(C)N=C1C(=O)C2(C)CCC1C2(C)C (centres undefined) | – | > 100 µM | > 100 | > 100 | > 100 | – | 34.8 | > 100 | > 100 | > 100 | – | – | – | – | –
6 | CCC1OC2(C)CC(C#N)(C#N)C1(C#N)C(=N)O2 (centres undefined) | > 100 | > 100 µM | – | > 100 | > 100 | > 100 µM | > 100 | > 100 | > 100 | > 100 | – | – | – | – | –
7 | COC1OC(C)/C(=N/O)C2OC(C)(C)OC12 (centres undefined) | > 100 | > 100 µM | > 100 | > 100 | > 100 | – | > 100 | > 100 | > 100 | > 100 | – | – | – | – | –
8 | Cc1c2cc[n+](C)cc2c(C)c2c1[nH]c1ccc(OCC(F)(F)F)cc12 | – | 5.8 µM and 9.49 µM | > 100 | > 44.8 | > 100 | 2.62 µM and 0.833 µM | > 100 | > 100 | > 100 | – | 0.123 | 44.6 µM and > 100 µM | > 100 | 0.837 µM and 0.271 µM | –
9 | CCCCn1c(-c2ccccc2)cs/c1=N\NC(=O)Cn1c(C)nc2ccccc21 | > 100 | > 100 µM | > 100 | > 100 | 94.1 | > 100 µM | > 100 | > 100 | > 100 | – | – | – | – | – | –
10 | C[C@H](NC(=O)C(C)(Cc1ccc(O)cn1)NC(=O)c1ccccc1)c1ccccc1 (some centres undefined) | > 100 | > 100 µM | > 100 | > 100 | > 100 | – | > 100 | > 100 | > 100 | > 100 | – | – | – | – | –
11 | Clc1cc(Cl)nc(Nc2ccc3c(c2)CCC3)n1 | > 100 | > 100 µM | > 100 | 59.1 | – | – | > 100 | > 100 | 72.3 | > 100 | – | – | – | – | –
12 | CSCSCC(CO)NC(=O)/C=C\c1c(C)[nH]c(=O)[nH]c1=O (centres undefined) | 102 | 120 µM | 214 | 156 | 249 | 118 µM | 197 | 96.4 | 320 | – | – | – | – | – | 10.8
13 | COc1ccc(-c2nc(-c3cnccn3)n(C/C=C/c3ccccc3)n2)cc1 | > 100 | > 100 µM | > 100 | > 100 | – | 51.7 µM | > 100 | > 100 | > 100 | > 100 | – | – | – | – | –
14 | CCOC(=O)c1c(SC(=O)c2ccc(Cl)cc2)n(-c2ccccc2)c(=S)n(-c2ccccc2)c1=O | > 100 | > 100 µM | > 100 | > 100 | > 100 | > 100 µM | > 100 | > 100 | > 100 | – | – | – | – | – | –
15 | N/C(=N\N=C/c1c(O)cc(O)cc1O)NO | > 100 | > 100 µM | > 100 | > 100 | > 100 | 98.8 µM | > 100 | > 100 | > 100 | – | – | – | – | – | –
16 | c1ccc(C2N=C(c3ccccn3)C(c3ccccn3)=NC2c2ccccc2)cc1 (centres undefined) | – | > 100 µM | > 100 | > 100 | > 100 | – | > 100 | > 100 | > 100 | – | – | – | – | – | –
17 | CC1(C)CC(=O)C2=C(C1)NC(=S)C(C#N)C2c1ccccc1 (centres undefined) | > 100 | > 100 µM | > 100 | – | > 100 | > 100 µM | > 100 | > 100 | > 100 | > 100 | – | – | – | – | –
18 | COc1c(NC(C)=O)c2ccccc2c2ccccc12 | > 100 | > 100 µM | > 100 | > 100 | > 100 | – | > 100 | > 100 | > 100 | > 100 | – | – | – | – | –
19 | O=c1[nH]c(=S)[nH]c2c1CCCN2 | > 100 | > 100 µM | > 100 | > 100 | > 100 | > 100 µM | > 100 | > 100 | > 100 | – | – | – | – | – | –
20 | CSCCC(NC(=O)C(Cc1c[nH]c2ccccc12)NC(=O)CCNC(=O)OC(C)(C)C)C(=O)NC(CC(=O)O)C(=O)NC(Cc1ccccc1)C(N)=O (centres undefined) | > 50 | – | – | > 50 | > 50 | > 50 µM | > 50 | > 50 | > 50 | > 50 | – | – | – | – | –
21 | COc1ccc(N=C(C)C(C)=Nc2ccc(OC)cc2)cc1 | > 100 | > 100 µM | > 100 | > 100 | > 100 | > 100 µM | – | > 100 | > 100 | > 100 | – | – | – | – | –
22 | CC(=O)N1CCOC12N=NC(C)(C)O2 (centres undefined) | > 100 | > 100 µM | > 100 | > 100 | – | > 100 µM | > 100 | > 100 | > 100 | > 100 | – | – | – | – | –
23 | C[C@@H]([C@H]1CC[C@@]2(C)[C@@H]3CC[C@@H]4C(=CC3=CC[C@]12C)CC[C@H](N(C)C)C4(C)C)N(C)C | > 100 | > 100 µM | > 100 | > 100 | > 100 | – | > 100 | > 100 | > 100 | – | – | – | – | – | –
